Measurements as given in article PMC3981761, “A New Assay for Determining Ganglioside Sialyltransferase Activities Lactosylceramide-2,3-Sialyltransferase (SAT I) and Monosialylganglioside-2,3-Sialyltransferase (SAT IV)” (PLoS ONE, 2014).

Tested on: T1, recombinant α2,3-(O)-sialyltransferase (EC 2.4.99.4), rat liver
T1 construct: gene St3gal2; recombinant commercial enzyme (EMD Bioscience), originating from rat liver
Assay: HPLC with fluorescence detection of BODIPY-GD1a formed
Assay type: biochemical
Settings: BODIPY-GM1 constant at 13 μM, pH 6, Mes, Triton, 37°C, 1 h; donor substrate

- Km: 23.4 ± 0.1 µM
Compound: CC(=O)N[C@H]1[C@H]([C@H](O)[C@H](O)CO)O[C@](OP(=O)(O)OC[C@H]2O[C@@H](n3ccc(N)nc3=O)[C@H](O)[C@@H]2O)(C(=O)O)C[C@@H]1O [CMP-NeuAc]
